We go through 1 compound from article PMC6235670, “An mTOR Signaling Modulator Suppressed Heterotopic Ossification of Fibrodysplasia Ossificans Progressiva” (Stem Cell Reports, 2018).

In the data set the test system is NOD/SCID mice transplanted with FOP-iMSCs. The text has this: MTOR s604 […]tt […]at […]
For X- ray images, mice were anesthetized with isoflurane (5% for induction, 2-3% for maintenance, Abbvie), immobilized and X-rayed using µFX-1000 (Fujifilm) or DX-50 (Faxitron Bioptics). µCT images were scanned using X-ray CT systems (inspeXio SMX-100CT, Shimadzu) and analyzed with TRI/3D-BON software (Ratoc System Engineering) according to the manufacturer's instructions. […]
Activin-A-induced HO model transplanted with FOP-iMSCs. FOP- (right leg) and resFOP-iMSCs (left leg) (4 x 10^6 cells, respectively) were transplanted into the gastrocnemius muscle of NOD/ShiJic-scid Jcl (NOD/SCID) mice (8 weeks, male, CLEA Japan) with C3H -DoxOn-hINHBA (5 x 10^5 cells), which can continuously expose Activin-A to the transplanted iMSCs in vivo ( Hino et al., 2015) . In the Dox-induced group, 1 mg/mL Dox (Sigma-Aldrich) was administered via drinking water with 10 mg/mL sucrose (Nacalai Tesque) for two weeks after transplantation. Compounds were intraperitoneally administered once a day, five times a week. Eight weeks after transplantation, the transplanted cells were harvested , fixed with 4% paraformaldehyde for 24 h, embedded in paraffin, and sectioned and stained with HE, von Kossa, Safranin O, human specific anti-Vimentin antibody and Collagen I antibody as previously described (Hino et al., 2015; Umeda et al., 2012; […]

For the compound `FC(F)(F)c1ccc(/C=C/c2nc(COc3ccc(CCCCn4ccnn4)cc3)co2)cc1` [TAK 165, mubritinib], under “5 mg/kg i.p.”, the “anti-human-specific vimentin-positive cells (survival of transplanted cells)” value is “large number”; the “body weight change compared with vehicle group” value is reported as “No significant differences”; the “hypertrophic chondrocytes and von Kossa- and COL1-positive bone regions” value is reported as “fewer”. Moreover, the “HO derived from FOP-iMSCs (heterotopic bone volume)” value (5 mg/kg i.p. once daily, five times a week, 8 weeks after transplantation) was “significantly suppressed”.
